Test results published in patent US11998534B2, “GPX4 inhibitor in combination with anticancer agent for treating proliferative disease” (Eubulus Biotherapeutics Inc., priority 2020, dated 2024).
Where two headings read alike, the source gives them in different places. Peptide text beside a SMILES is read from it. * marks the point of attachment. Cbz = O=C(OCc1ccccc1)*; CH2F = FC*

Assays:
Type in all cases: cell-based
[1] = system: cancerous cell lines (e.g., HT-29, Hub-7, or OVCAR-8); assay: Cell proliferation assay (CELL-TITER GLO cell viability), Table 1; details: 24 h incubation, cell line not stated
Protocol: (§1) The activity of a combination of a GPX4 inhibitor (e.g., compound A1, A2, or A3) and a tyrosine kinase inhibitor (e.g., neratinib, regorafenib, or sorafenib) was determined in a cell proliferation assay using cancerous cell lines (e.g., HT-29 (colorectal adenocarcinoma), Hub-7 (hepatocellular carcinoma), or OVCAR-8 (ovarian adenocarcinoma)). Cells of each cell line were seeded in a 96-well tissue culture plate. After incubated overnight, a compound or a combination was added at predetermined concentration(s). After the cells were incubated for 24 h, cell viability was determined using a CELL-TITER GLO® assay. The CELL-TITER GLO® reagent (50 μL) was added to each well and the luminescence was measured by a multimode microplate reader after a brief period of shaking. EC50 values were determined from dose response curves.

Huh-7 cells = assay: Cell viability assay with ferroptosis/apoptosis inhibitor rescue, Huh-7 cells (FIGS. 1-3); details: GPX4 inhibitor 100 nM + sorafenib C1 3 μM
Protocol: as §1

HT-29 cells = assay: Cell viability assay with ferroptosis/apoptosis inhibitor rescue, HT-29 cells (FIGS. 4-6); details: GPX4 inhibitor 100 nM + sorafenib C1 3 μM
Protocol: as §1

[2] = GPX4 inhibitor alone, read-out: Inhibition of Cell Proliferation, Monotherapy (EC50)
[3] = GPX4 inhibitor in combination with C2 (10 μM), read-out: Inhibition of Cell Proliferation, Combination +C2 (10 μM) (EC50)
[4] = GPX4 inhibitor in combination with C3 (3 μM), read-out: Inhibition of Cell Proliferation, Combination +C3 (3 μM) (EC50)

Structure (SMILES)	EC50 [1, 2] [nM]	EC50 [1, 3] [nM]	EC50 [1, 4] [nM]	Rescue from cell death induced by GPX4 inhibitor A1, A2, or A3 in combination with sorafenib C1 (Huh-7 cells)	Rescue from cell death induced by GPX4 inhibitor A1, A2, or A3 in combination with sorafenib C1 (HT-29 cells)
COC(=O)c1ccc(C2c3[nH]c4ccccc4c3C[C@H](C(=O)OC)N2C(=O)CCl)cc1 (stereo partly drawn) [A1, methyl (3R)-2-(2-chloroacetyl)-2,3,4,9-tetrahydro-1-(4-(methoxycarbonyl)phenyl)-1H-pyrido[3,4-b]indole-3-carboxylate]	8000	57	970		
C#CC(=O)N1C(c2ccc(C(=O)OC)cc2)c2[nH]c3ccccc3c2C[C@@H]1CO (stereo partly drawn) [A2, methyl 4-((3R)-3-(hydroxymethyl)-2-propioloyl-2,3,4,9-tetrahydro-1H-pyrido[3,4-b]indol-1-yl)benzoate]	22500	97	1300		
C#CC(=O)N(c1ccc(OC)c(Cl)c1)C(C(=O)NC(C)(C)C)c1ccc(N)cc1 (stereo not shown) [A3, N-(1-(4-aminophenyl)-2-(tert-butylamino)-2-oxoethyl)-N-(3-chloro-4-methoxyphenyl)propiolamide]	5700	207	1800		
CCOC(=O)c1ccc(NC2CCCCC2)c(N)c1 [Fer-1, ferrostatin-1]				able to rescue	able to rescue
COC(=O)C[C@H](NC(=O)[C@H](C)NC(=O)[C@@H](NC(=O)OCc1ccccc1)C(C)C)C(=O)CF [ZVAD, Z-VAD-FMK] (Cbz-Val-Ala-Asp(OMe)-CH2F)				could not	could not
